Data published in patent publication US4061748A, “7-(α-(4 -Hydroxy-1,5-naphthyridine-3-carbonamido)-α-phenylacetamido) cephalosporin derivatives” (Sumitomo Chemical Company, Limited, priority 1975, dated 1977).
In brackets after ≈: the same amount, converted by molar mass.

Legend:
Pseudomonas aeruginosa T [1] = test: Minimum inhibitory concentration, nutrient broth dilution method; assay type: cell-based
Protocol: (§1) The minimum inhibitory concentrations obtained with the example compounds, Compound (A) and Compound (B), against the following organisms representing 6 genera are shown in Table 1.
(§2) MIC was determined by the nutrient broth dilution method.

[2] = tested on: Proteus mirabilis GN 2425; test: as above; assay type: cell-based; settings: GN2425
Protocol: as §1, §2

[3] = tested on: Klebsiella pneumoniae PCI 602; test: as above; assay type: cell-based; settings: PCI602
Protocol: as §1, §2

Escherichia coli NIHJ = test: as above; assay type: cell-based
Protocol: as §1, §2

[4] = tested on: Enterobacter aerogenes No. 75; test: as above; assay type: cell-based; settings: Klebsiella aerogenes
Protocol: as §1, §2

Serratia No. 72 = test: as above; assay type: cell-based
Protocol: as §1, §2

Serratia No. 75 [5] = test: Median protective dose against intraperitoneal infection in mice; assay type: in vivo, Serratia; male ICR-SLC strain mice; settings: sc; Serratia No. 75, intraperitoneal infection; two subcutaneous treatments, 1 and 4 hours after infection; read-out: PD50
Description: (§3) The relative activities of the compounds of the present invention, Compound (A) and Compound (B) against various intraperitoneal infections in mice evaluated by mean median protective doses (subcutaneously administered) are shown in Table 3.
(§4) For each test, eight male ICR-SLC strain mice were used at each dose

Escherichia coli No. 37 [6] = test: Minimum inhibitory concentration, nutrient broth dilution method (Table 3); assay type: cell-based
Protocol: as §2

Serratia No. 75 [7] = test: as above; assay type: cell-based
Protocol: as §2

Escherichia coli No. 37 [8] = test: Median protective dose against intraperitoneal infection in mice; assay type: in vivo, Escherichia coli; male ICR-SLC strain mice; settings: sc; Escherichia coli No. 37, intraperitoneal infection; two subcutaneous treatments, 1 and 4 hours after infection; read-out: PD50
Description: as §3, §4

[9] = tested on: Enterobacter aerogenes No. 75; test: as above; assay type: in vivo, Enterobacter aerogenes; male ICR-SLC strain mice; settings: Klebsiella aerogenes, sc; Enterobacter aerogenes No. 75, intraperitoneal infection; two subcutaneous treatments, 1 and 4 hours after infection; read-out: PD50
Description: as §3, §4

[10] = Antibiotic serum concentrations in mice following subcutaneous administration (disc method bioassay); assay type: in vivo, ICR-SLC strain mice; settings: mouse, sc, 50 mg/kg; for Cmax: read-out: Peak concentration
Protocol: The antibiotic serum concentrations of the six cephalosporins following subcutaneous administration at 50 mg/kg to ICR-SLC strain mice are shown in Table 2.
The bioassay was carried out according to the disc method using
Pseudomonas aeruginosa.

Pseudomonas aeruginosa T [11] = test: Median protective dose against intraperitoneal infection in mice; assay type: in vivo, Pseudomonas aeruginosa; male ICR-SLC strain mice; settings: sc, two subcutaneous treatments, 1 and 4 hours after infection, read-out: PD50
Description: as §3, §4

Compound | MIC (Pseudomonas aeruginosa T [1]) | MIC [2] | MIC [3] | MIC (Escherichia coli NIHJ) | MIC [4] | MIC (Serratia No. 72) | ED50 (Serratia No. 75 [5]) | MIC (Escherichia coli No. 37 [6]) | MIC (Serratia No. 75 [7]) | ED50 (Escherichia coli No. 37 [8]) | ED50 [9] | Cmax [10] | ED50 (Pseudomonas aeruginosa T [11]) | half-life [10]
CC(=O)OCC1=C(C(=O)O)N2C(=O)C(NC(=O)[C@H](NC(=O)c3cnc4ccccc4c3O)c3ccccc3)C2SC1 (stereo partly drawn) [Compound (A), sodium 7-[D-α-(4-hydroxyquinoline-3-carboxyamino)-α-phenylacetamido] cephalosporanate, reference compound] | 12.5 µg/mL | 25 µg/mL | 0.78 µg/mL | 6.25 µg/mL | 25 µg/mL | 100 µg/mL | > 150 mg/kg | 12.5 µg/mL | 100 µg/mL | > 200 mg/kg | 200 mg/kg | < 900 ng/mL | > 100 mg/kg | –
CC(=O)OCC1=C(C(=O)O)N2C(=O)C(NC(=O)[C@H](NC(=O)c3cnccc3O)c3ccccc3)C2SC1 (stereo partly drawn) [Compound (B), sodium 7-[D-α-(4-hydroxypyridine-3-carboxyamino)-α-phenylacetamido] cephalosporanate, reference compound] | 25 µg/mL | 50 µg/mL | 12.5 µg/mL | 12.5 µg/mL | 25 µg/mL | > 200 µg/mL | > 150 mg/kg | 25 µg/mL | > 200 µg/mL | 170 mg/kg | 170 mg/kg | 26000 ng/mL | 92 mg/kg | 30 min
Cc1nnc(SCC2=C(C(=O)O)N3C(=O)C(NC(=O)[C@H](NC(=O)c4cnc5cccnc5c4O)c4ccccc4)C3SC2)s1 (stereo partly drawn) [Example 2, 7-[D-α-(4-Hydroxy-1,5-naphthyridine-3-carboxyamido)-α-phenylacetamido]-3-(2-methyl-1,3,4-thiadiazole-5-yl)thiomethyl-3-cephem-4-carboxylicacid] | 6.25 µg/mL (≈ 9.62 µM) | 12.5 µg/mL (≈ 19.2 µM) | 0.78 µg/mL (≈ 1.2 µM) | 1.56 µg/mL (≈ 2.4 µM) | 3.13 µg/mL (≈ 4.82 µM) | 12.5 µg/mL (≈ 19.2 µM) | 30 mg/kg | 6.25 µg/mL (≈ 9.62 µM) | 12.5 µg/mL (≈ 19.2 µM) | 41 mg/kg | 28 mg/kg | 38000 ng/mL | 23 mg/kg | 35 min
O=C(O)C1=C(CSc2cnn[nH]2)CSC2C(NC(=O)[C@H](NC(=O)c3cnc4cccnc4c3O)c3ccccc3)C(=O)N12 (stereo partly drawn) [Example 4, 7-[d-α-(4-hydroxy-1,5-naphthyridine-3-carboxyamido)-α-phenylacetamido]-3-(1,2,3-triazole-5-yl)thiomethyl-3-cephem-4-carboxylic acid] | 12.5 µg/mL (≈ 20.2 µM) | 25 µg/mL (≈ 40.4 µM) | 1.56 µg/mL (≈ 2.52 µM) | 1.56 µg/mL (≈ 2.52 µM) | 3.13 µg/mL (≈ 5.06 µM) | 25 µg/mL (≈ 40.4 µM) | 30 mg/kg | 6.25 µg/mL (≈ 10.1 µM) | 12.5 µg/mL (≈ 20.2 µM) | 45 mg/kg | 30 mg/kg | 26000 ng/mL | 30 mg/kg | 30 min
Cn1nnnc1SCC1=C(C(=O)O)N2C(=O)C(NC(=O)[C@H](NC(=O)c3cnc4cccnc4c3O)c3ccccc3)C2SC1 (some centres unmarked) [Example 3] | 12.5 µg/mL (≈ 19.7 µM) | 12.5 µg/mL (≈ 19.7 µM) | 0.39 µg/mL (≈ 0.615 µM) | 0.78 µg/mL (≈ 1.23 µM) | 3.13 µg/mL (≈ 4.94 µM) | 12.5 µg/mL (≈ 19.7 µM) | 25 mg/kg | 3.13 µg/mL (≈ 4.94 µM) | 6.25 µg/mL (≈ 9.86 µM) | 28 mg/kg | 25 mg/kg | 24000 ng/mL | 28 mg/kg | 25 min
CC(=O)OCC1=C(C(=O)O)N2C(=O)C(NC(=O)[C@H](NC(=O)c3cnc4cccnc4c3O)c3ccccc3)C2SC1 (stereo partly drawn) [Example 1, 7-[D-α-(4-Hydroxy-1,5-naphthyridine-3-carboxyamido)-α-phenylacetamido] cephalosporanic acid] | 6.25 µg/mL (≈ 10.8 µM) | 12.5 µg/mL (≈ 21.6 µM) | 1.56 µg/mL (≈ 2.7 µM) | 3.13 µg/mL (≈ 5.42 µM) | 6.25 µg/mL (≈ 10.8 µM) | 50 µg/mL (≈ 86.6 µM) | 65 mg/kg | 6.25 µg/mL (≈ 10.8 µM) | 50 µg/mL (≈ 86.6 µM) | 50 mg/kg | 50 mg/kg | 44000 ng/mL | 18 mg/kg | 25 min
